For assay [1], the target named is T1, TNKS2 (Homo sapiens, UniProt Q9H2K2).
T1 construct: TNKS2 (residues 873–1162); made in house
T1 sequence (Q9H2K2 873-1162): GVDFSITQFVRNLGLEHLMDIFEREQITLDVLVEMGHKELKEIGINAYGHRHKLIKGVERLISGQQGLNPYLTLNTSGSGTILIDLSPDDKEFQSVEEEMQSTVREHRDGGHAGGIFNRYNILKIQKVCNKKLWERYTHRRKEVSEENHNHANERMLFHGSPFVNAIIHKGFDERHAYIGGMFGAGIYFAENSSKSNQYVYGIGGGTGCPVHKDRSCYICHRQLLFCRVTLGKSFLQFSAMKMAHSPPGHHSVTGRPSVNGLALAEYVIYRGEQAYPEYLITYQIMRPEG
Nature of the assay: TNKS2 biochemical assay (unreacted NAD+ fluorescence). Particulars: TNKS2 5 nM, 500 nM NAD+, 20 h; quadruplicates; 95% confidence intervals in parentheses; 24: averages of multiple independent measurements; read-out: IC50 TNKS2. Here is the method: New compounds were prepared in half-log dilution series, and the reactions were carried out in quadruplicates with protein and compound controls to exclude the effect of compound autofluorescence. All reactions were performed at ambient temperature. TNKS1 (20 nM) or TNKS2 (5 nM) was incubated for 20 h in assay buffer (50 mM Bis-Tris propane (BTP), pH 7.0, 0.5 mM Tris(2-carboxyethyl)phosphine (TCEP), 0.01% Triton X-100) with compound and 10 μM or 500 nM NAD^+, respectively.

Assay [2] has as its system WNT/β-catenin signaling. Nature of the assay: cellular (HEK293) WNT/β-catenin signaling luciferase reporter assay. Format: cell-based, human. (In general: Reporter assays use an easily measured gene product as a stand-in for the process of interest.)
Setting [3] is: Homo sapiens, HEK293, read-out: IC50 HEK293, HEK293 WNT/β-catenin signaling reporter assay, triplicates, 24: averages of multiple independent measurements.
The mark [4] stands for this setting: read-out: IC50 HEK293, HEK293 WNT/β-catenin signaling reporter assay, triplicates, 24: averages of multiple independent measurements.
Where [5] appears, read: Homo sapiens, HEK293, read-out: IC50 HEK293.

Data on 19 molecules can be found in article PMC8713164, “Development of a 1,2,4-Triazole-Based Lead Tankyrase Inhibitor: Part II” (Journal of Medicinal Chemistry, 2021).

“And” between values parts separate entries of the source, which are not always exact repeats. Equal entries are not always repeated. Where two headings read alike, the source gives them in different places.

Turning to `O=C(N[C@H]1C[C@H](c2nnc(-c3ccc(OC4CC4)cn3)n2-c2ccccc2F)C1)c1ccccn1` [Compound 7, N-(trans-3-(5-(5-Cyclopropoxypyridin-2-yl)-4-(2-fluorophenyl)-4H-1,2,4-triazol-3-yl)cyclobutyl)picolinamide], the IC50 in assay [1] was 8.6 nM; in assay [2] (setting [3]), 49 nM.
As for `CC(C)Oc1ccc(-c2nnc([C@H]3C[C@H](NC(=O)c4ccccn4)C3)n2-c2ccccc2F)nc1` [Compound 8, N-(trans-3-(4-(2-Fluorophenyl)-5-(5-isopropoxypyridin-2-yl)-4H-1,2,4-triazol-3-yl)cyclobutyl)picolinamide], the IC50 in assay [1] was 12 nM; in assay [2] (setting [3]), 110 nM.
Turning to `O=C(N[C@H]1C[C@H](c2nnc(-c3ccccc3)n2-c2ccccc2F)C1)c1ccccn1` [Compound 9, N-(trans-3-(4-(2-Fluorophenyl)-5-phenyl-4H-1,2,4-triazol-3-yl)cyclobutyl)picolinamide], the IC50 in assay [1] is 220 nM and 216 nM; in assay [2] (setting [3]), 789 nM.
With `O=C(N[C@H]1C[C@H](c2nnc(-c3cnccn3)n2-c2ccccc2F)C1)c1ccccn1` [Compound 10, N-(trans-3-(4-(-2-Fluorophenyl)-5-(pyrazin-2-yl)-4H-1,2,4-triazol-3-yl)cyclobutyl)picolinamide], the IC50 in assay [1] was 93 nM; in assay [2] (setting [3]), 355 nM.
The matching figures for `CCOc1ccc(-c2nnc([C@H]3C[C@H](NC(=O)c4ccccn4)C3)n2-c2ccccc2)nc1` [Compound 11, N-(trans-3-(5-(5-Ethoxypyridin-2-yl)-4-phenyl-4H-1,2,4-triazol-3-yl)cyclobutyl)picolinamide]: 5.2 nM and 65 nM.
The matching figures for `CCOc1ccc(-c2nnc([C@H]3C[C@H](NC(=O)c4ccccn4)C3)n2-c2cccc(Cl)c2)nc1` [Compound 12, N-(trans-3-(4-(3-Chlorophenyl)-5-(5-ethoxypyridin-2-yl)-4H-1,2,4-triazol-3-yl)cyclobutyl)picolinamide]: 13 nM and 83 nM.
The matching figures for `CCOc1ccc(-c2nnc([C@H]3C[C@H](NC(=O)c4ccccn4)C3)n2-c2ccc(C)s2)nc1` [Compound 13, N-(trans-3-(5-(5-Ethoxypyridin-2-yl)-4-(5-methylthiophen-2-yl)-4H-1,2,4-triazol-3-yl)cyclobutyl)picolinamide]: 4.6 nM and 37 nM.
Turning to `CCOc1ccc(-c2nnc([C@H]3C[C@H](NC(=O)c4ccccn4)C3)n2-c2ccc(Cl)s2)nc1` [Compound 14, N-(trans-3-(4-(5-Chlorothiophen-2-yl)-5-(5-ethoxypyridin-2-yl)-4H-1,2,4-triazol-3-yl)cyclobutyl)picolinamide], the IC50 in assay [1] worked out at 12 nM; in assay [2] (setting [3]) it was 27 nM.
In the case of `CCOc1ccc(-c2nnc([C@H]3C[C@H](NC(=O)c4ccnc5cccnc45)C3)n2-c2ccccn2)nc1` [Compound 16a, N-(trans-3-(5-(5-Ethoxypyridin-2-yl)-4-(pyridin-2-yl)-4H-1,2,4-triazol-3-yl)cyclobutyl)-1,5-naphthyridine-4-carboxamide], the results for the IC50 in assay [1] and in assay [2] (setting [3]) were 5.8 nM and 36 nM, respectively.
On to `CCOc1ccc(-c2nnc([C@H]3C[C@H](NC(=O)c4ccnc5cc(F)cnc45)C3)n2-c2ccccn2)nc1` [Compound 16b, N-(trans-3-(5-(5-Ethoxypyridin-2-yl)-4-(pyridin-2-yl)-4H-1,2,4-triazol-3-yl)cyclobutyl)-7-fluoro-1,5-naphthyridine-4-carboxamide], for which the figures for the IC50 in assay [1], in assay [2] (setting [3]) and in assay [2] (setting [4]) were 8.5 nM, 8.7 nM and 9 nM, respectively.
For the molecule `CCOc1ccc(-c2nnc([C@H]3C[C@H](NC(=O)c4ccnc5cccnc45)C3)n2-c2cccnc2)nc1` [Compound 17a, N-(trans-3-(5-(5-Ethoxypyridin-2-yl)-4-(pyridin-3-yl)-4H-1,2,4-triazol-3-yl)cyclobutyl)-1,5-naphthyridine-4-carboxamide], the IC50 is 4.5 nM in assay [1] and 16 nM in assay [2] (setting [3]).
For `CCOc1ccc(-c2nnc([C@H]3C[C@H](NC(=O)c4ccnc5cc(F)cnc45)C3)n2-c2cccnc2)nc1` [Compound 17b, N-(trans-3-(5-(5-Ethoxypyridin-2-yl)-4-(pyridin-3-yl)-4H-1,2,4-triazol-3-yl)cyclobutyl)-7-fluoro-1,5-naphthyridine-4-carboxamide], the IC50 was determined as 5.8 nM in assay [1], 9.1 nM in assay [2] (setting [3]) and 9 nM in assay [2] (setting [4]).
Consider `CCOc1ccc(-c2nnc([C@H]3C[C@H](NC(=O)c4ccnc5cccnc45)C3)n2-c2ccncc2)nc1` [Compound 18a, N-(trans-3-(5-(5-Ethoxypyridin-2-yl)-4-(pyridin-4-yl)-4H-1,2,4-triazol-3-yl)cyclobutyl)-1,5-naphthyridine-4-carboxamide], for which the IC50 is 5.4 nM in assay [1] and 13 nM in assay [2] (setting [3]).
`CCOc1ccc(-c2nnc(C34CC(NC(=O)c5ccnc6cccnc56)(C3)C4)n2-c2ccccn2)nc1` [Compound 19, N-(3-(5-(5-Ethoxypyridin-2-yl)-4-(pyridin-2-yl)-4H-1,2,4-triazol-3-yl)bicyclo[1.1.1]pentan-1-yl)-1,5-naphthyridine-4-carboxamide]: the IC50 in assay [1] was found to be 13 nM; in assay [2] (setting [5]), 20 nM.
On to `CCOc1ccc(-c2nnc(C34CC(NC(=O)c5ccnc6cccnc56)(C3)C4)n2-c2cccnc2)nc1` [Compound 20, N-(3-(5-(5-Ethoxypyridin-2-yl)-4-(pyridin-3-yl)-4H-1,2,4-triazol-3-yl)bicyclo[1.1.1]pentan-1-yl)-1,5-naphthyridine-4-carboxamide], for which the IC50 in assay [1] turned out to be 9.6 nM; in assay [2] (setting [5]), 30 nM.
With `CCOc1ccc(-c2nnc(C34CC(NC(=O)c5ccnc6cccnc56)(C3)C4)n2-c2ccncc2)nc1` [Compound 21, N-(3-(5-(5-Ethoxypyridin-2-yl)-4-(pyridin-4-yl)-4H-1,2,4-triazol-3-yl)bicyclo[1.1.1]pentan-1-yl)-1,5-naphthyridine-4-carboxamide], the IC50 in assay [1] was 9.4 nM; in assay [2] (setting [5]), 43 nM.
As to `CCOc1ccc(-c2nnc([C@H]3C[C@H](NC(=O)c4ccnc5cc(F)cnc45)C3)n2-c2ccc(C)s2)nc1` [Compound 22b, N-(trans-3-(5-(5-Ethoxypyridin-2-yl)-4-(5-methylthiophen-2-yl)-4H-1,2,4-triazol-3-yl)cyclobutyl)-7-fluoro-1,5-naphthyridine-4-carboxamide], the IC50 in assay [1] came to 1.6 nM; in assay [2] (setting [3]), 1 nM.
The matching figures for `CCOc1ccc(-c2nnc([C@H]3C[C@H](NC(=O)c4cccc5cccnc45)C3)n2-c2ccc(C)s2)nc1` [Compound 23, N-(trans-3-(5-(5-Ethoxypyridin-2-yl)-4-(5-methylthiophen-2-yl)-4H-1,2,4-triazol-3-yl)cyclobutyl)quinoline-8-carboxamide]: 2.4 nM and 1 nM.
The like results for `CCOc1ccc(-c2nnc([C@H]3C[C@H](NC(=O)c4cccc5ncc(C)nc45)C3)n2-c2ccccc2F)nc1` [Compound 26, N-(trans-3-(5-(5-Ethoxypyridin-2-yl)-4-(2-fluorophenyl)-4H-1,2,4-triazol-3-yl)cyclobutyl)-3-methylquinoxaline-5-carboxamide] were, in that order, 1.5 nM and 2.2 nM.
